The source of these data is US6506751B1, “Thiazolidinone compounds useful as chemokine inhibitors” (Millennium Pharmaceuticals, Inc., priority 1999, dated 2003).

The target of the test is T1, CCR-5 receptor (Homo sapiens, UniProt P51681).
T1 construct: membranes prepared from CCR-5/L 1.2 cells; expressed in transfected cells; host or cells: L1.2 cells (CCR-5/L 1.2), membrane preparation
Nature of the test: 125I-gp120/sCD4/CCR-5 binding assay (CCR-5 receptor binding assay). To be noted: for IC50: block of 125I-gp120 (HIV-1 JR-FL)/sCD4 binding to membranes from CCR-5/L 1.2 cells; for inhibition at 10 µM / % Inhib. @ 10 μM: 10 μM compound, 125I-gp120/sCD4 binding to membranes from CCR-5/L 1.2 cells; for inhibition at 10 µM: read-out: % Inhib. @ 10 μM. As for the experimental part:
The ^125I-gp120/sCD4/CCR-5 binding assay is carried out similarly as described in Wu et al., Nature, 1996;384:179-183. Briefly, the envelope gp120 protein derived from HIV-1 JR-FL (Trkola et al., Nature, 1996;384:184-186), a M-tropic strain, is iodinated using solid phase lactoperoxidase to a specific activity of 20 μCi/μg. For each binding reaction (in a final volume of 100 μL binding buffer [50 mM HEPES, pH 7.5, 1 mM CaCl2, 5 mM MgCl2, and 0.5% BSA]), 25 μL (2.5 μg) of membranes prepared from CCR-5/L 1.2 cells are mixed with 25 μL (3 nM) sCD4, followed by 25 μL (0.1 nM) radiolabeled gp120 in the presence or absence of 25 μL compound dissolved in DMSO (final concentration of DMSO 0.5%). The reactions are incubated at room temperature for 45 to 60 minutes and stopped by transferring the mixture to GFB filter plates, which are then washed 3 to 4 times with binding buffer containing 0.5 M NaCl. The plates are dried and MicroScint scintillation fluid is added before counting.

T1 sequence (P51681 whole entry): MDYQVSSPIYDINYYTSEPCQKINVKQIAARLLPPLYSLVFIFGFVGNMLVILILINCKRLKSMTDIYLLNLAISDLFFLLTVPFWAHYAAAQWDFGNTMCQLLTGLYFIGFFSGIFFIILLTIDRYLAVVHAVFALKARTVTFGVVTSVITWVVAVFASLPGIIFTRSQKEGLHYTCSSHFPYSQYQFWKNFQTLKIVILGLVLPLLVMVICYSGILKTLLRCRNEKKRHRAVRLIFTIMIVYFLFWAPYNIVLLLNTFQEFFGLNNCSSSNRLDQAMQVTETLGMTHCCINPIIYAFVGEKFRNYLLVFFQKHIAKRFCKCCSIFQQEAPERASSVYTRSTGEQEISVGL

In the case of `O=C1/C(=C\c2ccccc2)SC(c2cccc(Cl)c2)N1CCCN1CCCCC1` (centres unmarked) [Compound 3, 5-Benzylidene-2-(3-chlorophenyl)-3-(3-piperidin-1-yl-propyl)-thiazolidin-4-one], the IC50 (in general, the midpoint of a concentration-inhibition curve) was 280 nM.
The same measure, in the same setting: to `O=C1/C(=C\c2cccc(F)c2)SC(c2cccc(Cl)c2)N1CCCN1CCCCC1` (centres unmarked) [Compound 4, 2-(3-Chlorophenyl)-5-(3-fluorobenzylidene)-3-(3-piperidin-1-yl-propyl)-thiazolidin-4-one] belongs 200 nM.
On the same count and under the same terms, to `O=C1/C(=C\c2cccc(F)c2)SC(c2ccccc2)N1CCCN1CCC(N2CCCCC2)CC1` (centres unmarked) [Compound 5, 3-(3-[1,4′]Bipiperidinyl-1′-yl-propyl)-5-(3-fluorobenzylidene)-2-phenyl-thiazolidin-4-one] belongs 710 nM; to `O=C1/C(=C\c2cccc(F)c2)SC(c2ccccc2)N1CCCN1CCOCC1` (centres unmarked) [Compound 7, 5-(3-Fluorobenzylidene)-3-(3-morpholin-4-yl-propyl)-2-phenyl-thiazolidin-4-one], 140 nM; to `O=C1/C(=C\c2ccncc2)SC(c2cccc(Cl)c2)N1CCCN1CCCCC1` (centres unmarked) [Compound 8, 2-(3-Chlorophenyl)-3-(3-piperidin-1-yl-propyl)-5-(pyridin-4-yl-methylene)-thiazolidin-4-one], 780 nM.
Molecule `O=C1/C(=C\c2ccc[nH]2)SC(c2cccc(Cl)c2)N1CCCN1CCCCC1` (centres unmarked) [Compound 9, 2-(3-Chlorophenyl)-3-(3-piperidin-1-yl-propyl)-5-(1 H-pyrrol-2-yl-methylene)-thiazolidin-4-one] returned an IC50 of 390 nM.
Still for that read-out and setting: to `O=C1/C(=C\c2ccsc2)SC(c2cccc(Cl)c2)N1CCCN1CCCCC1` (centres unmarked) [Compound 10, 2-(3-Chlorophenyl)-3-(3-piperidin-1-yl-propyl)-5-(thiophen-3-yl-methylene)-thiazolidin-4-one] belongs 1040 nM; to `Cn1cccc1C=C1SC(c2cccc(Cl)c2)N(CCCN2CCCCC2)C1=O` (centres unmarked) [Compound 11, 2-(3-Chlorophenyl)-5-(1-methyl-1H-pyrrol-2-ylmethylene)-3-(3-piperidin-1-yl-propyl)-thiazolidin-4-one], 980 nM; to `CCC(/C=C1/SC(c2cccc(Cl)c2)N(CCCN2CCCCC2)C1=O)CC` (centres unmarked) [Compound 12, 2-(3-Chlorophenyl)-5-(2-ethylbutylidene)-3-(3-piperidin-1-yl-propyl)-thiazolidin-4-one], 6640 nM.
`CN(C)CC(C)(C)/C=C1/SC(c2cccc(Cl)c2)N(CCCN2CCCCC2)C1=O` (centres unmarked) [Compound 13, 2-(3-Chlorophenyl)-5-(3-dimethylamino-2,2-dimethylpropylidene)-3-(3-piperidin-1-yl-propyl)-thiazolidin-4-one]: the IC50 is 2820 nM.
On the same count and under the same terms, in the case of `O=C1/C(=C\c2cnc3ccccc3c2)SC(c2cccc(Cl)c2)N1CCCN1CCCCC1` (centres unmarked) [Compound 18, 2-(3-Chlorophenyl)-3-(3-piperidin-1-yl-propyl)-5-(quinolin-3-ylmethylene)-thiazolidin-4-one] it was 4120 nM.
On to `O=C1C(=Cc2ccccc2)SC(c2ccccc2)N1CCCN1CCCCCC1` (centres unmarked) [Compound 21, 3-(3-Azepan-1-ylpropyl)-5-benzylidene-2-phenyl-thiazolidin-4-one], for which the IC50 amounted to 1400 nM.
In the case of `O=C1/C(=C\c2cccc(F)c2)SC(c2cccc(Cl)c2)N1CCCN1CCC(N2CCCCC2)CC1` (centres unmarked) [Compound 22, 3-(3-[1,4′]Bipiperidinyl-1′-yl-propyl)-2-(3-chlorophenyl)-5-(3-fluorobenzylidene)-thiazolidin-4-one], the half-maximal inhibitory concentration (IC50) stood at 400 nM.
Still for that read-out and setting: to `O=C1C(=Cc2ccccc2)[S+]([O-])C(c2cccc(Cl)c2)N1CCCN1CCCCC1` (centres unmarked) [Compound 24, 5-Benzylidene-2-(3-chlorophenyl)-1-oxo-3-(3-piperidin-1-yl-propyl)-thiazolidin-4-one] belongs 3100 nM.
On to `O=C1C(=Cc2cccc(F)c2)SC(c2cccc(C(F)(F)F)c2)N1CCCN1CCCCC1` (centres unmarked) [Compound 25, 5-(3-Fluoro-benzylidene)-3-(3-piperidin-1-yl-propyl)-2-(3-trifluoromethyl-phenyl)-thiazolidin-4-one], for which the inhibition at 10 µM was found to be 50.7%.
On the same count and under the same terms, to `O=C1C(=Cc2cccc(F)c2)SC(c2cccc(F)c2)N1CCCN1CCN(c2ccccn2)CC1` (centres unmarked) [Compound 26, 5-(3-Fluoro-benzylidene)-2-(3-fluoro-phenyl)-3-[3-(4-pyridin-2-yl-piperazin-1-yl)-propyl]-thiazolidin-4-one] belongs 75.3%; to `O=C1C(=Cc2cccc(F)c2)SC(c2cccc(F)c2)N1CCCN1CCN(C2CCCCC2)CC1` (centres unmarked) [Compound 27, 3-[3-(4-Cyclohexyl-piperazin-1-yl)-propyl]-5-(3-fluoro-benzylidene)-2-(3-fluoro-phenyl)-thiazolidin-4-one], 57.6%.
In the case of `O=C1C(=Cc2cccc(F)c2)SC(c2cccc(Cl)c2)N1CCCN1CCN(c2ccccn2)CC1` (centres unmarked) [Compound 28, 2-(3-Chloro-phenyl)-5-(3-fluoro-benzylidene)-3-[3-(4-pyridin-2-yl-piperazin-1-yl)-propy1]-thiazolidin-4-one], the “% Inhib. @ 10 μM” value is reported as 78.8%.
Turning to `O=C1C(=Cc2cccc(F)c2)SC(c2cccc(Cl)c2)N1CCCN1CCN(c2ncccn2)CC1` (centres unmarked) [Compound 29, 2-(3-Chloro-phenyl)-5-(3-fluoro-benzylidene)-3-[3-(4-pyrimidin-2-yl-piperazin-1-yl)-propyl]-thiazolidin-4-one], the inhibition at 10 µM was determined as 86.8%.
In the case of `O=C1C(=Cc2cccc(C(F)(F)F)c2)SC(c2cccc(Cl)c2)N1CCCN1CCN(c2ccccn2)CC1` (centres unmarked) [Compound 30, 2-(3-Chloro-phenyl)-3-[3-(4-pyridin-2-yl-piperazin-1-yl)-propyl]-5-(3-trifluoromethyl-benzylidene)-thiazolidin-4-one], the inhibition at 10 µM is 61.7%.
Same read-out and setting: in the case of `O=C1C(=Cc2cccc(C(F)(F)F)c2)SC(c2cccc(Cl)c2)N1CCCN1CCCCC1` (centres unmarked) [Compound 31, 2-(3-Chloro-phenyl)-3-(3-piperidin-1-yl-propyl)-5-(3-trifluoromethyl-benzylidene)-thiazolidin-4-one] it was 54.4%.
Regarding `O=C1C(=Cc2cccc(C(F)(F)F)c2)SC(c2cccc(Cl)c2)N1CCCN1CCN(c2ncccn2)CC1` (centres unmarked) [Compound 32], the “% Inhib. @ 10 μM” value was found to be 81.8%.
`O=C1C(=Cc2ccccc2)SC(c2cccc(C(F)(F)F)c2)N1CCCN1CCN(c2ccccn2)CC1` (centres unmarked) [Compound 33, 5-Benzylidene-3-[3-(4-pyridin-2-yl-piperazin-1-yl)-propyl]-2-(3-trifluoromethyl-phenyl)-thiazolidin-4-one]: the inhibition at 10 µM amounted to 62%.
Regarding `O=C1C(=Cc2ccccc2)SC(c2cccc(C(F)(F)F)c2)N1CCCN1CCN(c2ncccn2)CC1` (centres unmarked) [Compound 34, 5-Benzylidene-3-[3-(4-pyrimidin-2-yl-piperazin-1-yl)-propyl]-2-(3-trifluoromethyl-phenyl)-thiazolidin-4-one], the inhibition at 10 µM is 79.2%.
The same measure, in the same setting: to `O=C1C(=Cc2ccccc2)SC(c2cccc(F)c2)N1CCCN1CCN(c2ccccn2)CC1` (centres unmarked) [Compound 35, 5-Benzylidene-2-(3-fluoro-phenyl)-3-[3-(4-pyridin-2-yl-piperazin-1-yl)-propyl]-thiazolidin-4-one] belongs 76.2%; to `O=C1C(=Cc2ccccc2)SC(c2cccc(F)c2)N1CCCN1CCCCC1` (centres unmarked) [Compound 36, 5-Benzylidene-2-(3-fluoro-phenyl)-3-(3-piperidin-1-yl-propyl)-thiazolidin-4-one], 63.3%; to `O=C1C(=Cc2ccccc2)SC(c2cccc(F)c2)N1CCCN1CCC(N2CCCCC2)CC1` (centres unmarked) [Compound 37, 5-Benzylidene-3-(3-[1,4′]bipiperidinyl-1′-yl-propyl)-2-(3-fluoro-phenyl)-thiazolidin-4-one], 56.6%.
Still for that read-out and setting: to `O=C1C(=Cc2ccccc2)SC(c2cccc(F)c2)N1CCCN1CCN(C2CCCCC2)CC1` (centres unmarked) [Compound 38, 5-Benzylidene-3-[3-(4-cyclohexyl-piperazin-1-yl)-propyl]-2-(3-fluoro-phenyl)-thiazolidin-4-one] belongs 54.4%.
With `O=C1C(=Cc2ccccc2)SC(c2cccc([N+](=O)[O-])c2)N1CCCN1CCN(c2ncccn2)CC1` (centres unmarked) [Compound 39], the “% Inhib. @ 10 μM” value is recorded as 70.1%.
Consider `O=C1C(=Cc2ccccc2)SC(c2cccc(Cl)c2)N1CCCN1CCN(c2ccccn2)CC1` (centres unmarked) [Compound 40, 5-Benzylidene-2-(3-chloro-phenyl)-3-[3-(4-pyridin-2-yl-piperazin-1-yl)-propyl]-thiazolidin-4-one], for which the inhibition at 10 µM worked out at 84.3%.
`O=C1C(=Cc2ccccc2)SC(c2cccc(Cl)c2)N1CCCN1CCC(N2CCCCC2)CC1` (centres unmarked) [Compound 41, 5-Benzylidene-3-(3-[1,4′]bipiperidinyl-1′-yl-propyl)-2-(3-chloro-phenyl)-thiazolidin-4-one]: the inhibition at 10 µM turned out to be 62.4%.
As for `O=C1C(=Cc2ccccc2)SC(c2cccc(Cl)c2)N1CCCN1CCOCC1` (centres unmarked) [Compound 42, 5-Benzylidene-2-(3-chloro-phenyl)-3-(3-morpholin-4-yl-propyl)-thiazolidin-4-one], the inhibition at 10 µM stood at 64.7%.
